According to ChEMBL document CHEMBL3352235, “Design, synthesis and biological evaluation of 17-arylmethylamine-17-demethoxygeldanamycin derivatives as potent Hsp90 inhibitors” (Eur J Med Chem, 2014):

Experiments:
LNCaP = assay: cells; conditions: Homo sapiens, 72 h
Description: Cytotoxicity against human LNCAP cells after 72 hrs by MTT assay

MDA-MB-231 [1] = assay: cells; conditions: Homo sapiens, MDA-MB-231, 72 h
Description: Cytotoxicity against human MDA-MB-231 cells after 72 hrs by MTT assay

Mus musculus [2] = assay: Hepatotoxicity in Kunming mouse assessed as serum AST level at 10 mg/kg, iv (reference value: 197.2 +/- 11.2 U/L); assay type: toxicity, organism-based; design: dose 10 mg/kg, route intravenous; conditions: in vivo
Mus musculus [3] = assay: Hepatotoxicity in Kunming mouse assessed as serum ALT level at 10 mg/kg, iv (reference value: 60.7 +/- 6.9 U/L); assay type: toxicity, organism-based; design: dose 10 mg/kg, route intravenous; conditions: in vivo
[4] = target: Heat shock protein HSP 90-alpha (Homo sapiens, UniProt P07900); assay: Displacement of GA-FITC from human recombinant HSP90alpha ATP-binding site by fluorescence polarization assay
MDA-MB-231 [5] = assay: Antitumor activity against human MDA-MB-231 cells xenografted in BALB/c mouse assessed as reduction in tumor weight at 10 mg/kg, iv dosed every 3 days for 15 days; assay type: functional; conditions: read-out: GI
MDA-MB-231 [6] = assay: Antitumor activity against human MDA-MB-231 cells xenografted in BALB/c mouse assessed as tumor volume at 10 mg/kg, iv dosed every 3 days for 15 days relative to untreated control; assay type: functional

Compound	IC50 (LNCaP) [nM]	IC50 (MDA-MB-231 [1]) [nM]	other results
CO[C@H]1/C=C\C=C(/C)C(=O)NC2=CC(=O)C(NCc3ccccc3Cl)=C(C[C@@H](C)C[C@H](OC)[C@H](O)[C@@H](C)/C=C(\C)[C@@H]1OC(N)=O)C2=O	410	650	–
CO[C@H]1/C=C\C=C(/C)C(=O)NC2=CC(=O)C(NCc3cccc(Cl)c3)=C(C[C@@H](C)C[C@H](OC)[C@H](O)[C@@H](C)/C=C(\C)[C@@H]1OC(N)=O)C2=O	8500	380	–
CO[C@H]1/C=C\C=C(/C)C(=O)NC2=CC(=O)C(NCc3ccc(Cl)cc3)=C(C[C@@H](C)C[C@H](OC)[C@H](O)[C@@H](C)/C=C(\C)[C@@H]1OC(N)=O)C2=O	770	460	–
CO[C@H]1/C=C\C=C(/C)C(=O)NC2=CC(=O)C(NCc3ccc(F)cc3)=C(C[C@@H](C)C[C@H](OC)[C@H](O)[C@@H](C)/C=C(\C)[C@@H]1OC(N)=O)C2=O	2280	630	–
CO[C@H]1/C=C\C=C(/C)C(=O)NC2=CC(=O)C(NCc3ccc(Br)cc3)=C(C[C@@H](C)C[C@H](OC)[C@H](O)[C@@H](C)/C=C(\C)[C@@H]1OC(N)=O)C2=O	> 10000	240	–
CO[C@H]1/C=C\C=C(/C)C(=O)NC2=CC(=O)C(NCc3ccc(I)cc3)=C(C[C@@H](C)C[C@H](OC)[C@H](O)[C@@H](C)/C=C(\C)[C@@H]1OC(N)=O)C2=O	1360	360	–
CO[C@H]1/C=C\C=C(/C)C(=O)NC2=CC(=O)C(NCc3ccc(F)c(F)c3)=C(C[C@@H](C)C[C@H](OC)[C@H](O)[C@@H](C)/C=C(\C)[C@@H]1OC(N)=O)C2=O	> 10000	630	–
CO[C@H]1/C=C\C=C(/C)C(=O)NC2=CC(=O)C(NCc3cc(F)cc(F)c3)=C(C[C@@H](C)C[C@H](OC)[C@H](O)[C@@H](C)/C=C(\C)[C@@H]1OC(N)=O)C2=O	1980	350	–
COc1ccccc1CNC1=C2C[C@@H](C)C[C@H](OC)[C@H](O)[C@@H](C)/C=C(\C)[C@H](OC(N)=O)[C@@H](OC)/C=C\C=C(/C)C(=O)NC(=CC1=O)C2=O	> 10000	460	–
COc1cccc(CNC2=C3C[C@@H](C)C[C@H](OC)[C@H](O)[C@@H](C)/C=C(\C)[C@H](OC(N)=O)[C@@H](OC)/C=C\C=C(/C)C(=O)NC(=CC2=O)C3=O)c1	2670	880	–
COc1ccc(CNC2=C3C[C@@H](C)C[C@H](OC)[C@H](O)[C@@H](C)/C=C(\C)[C@H](OC(N)=O)[C@@H](OC)/C=C\C=C(/C)C(=O)NC(=CC2=O)C3=O)cc1	7810	180	–
COc1ccc(CNC2=C3C[C@@H](C)C[C@H](OC)[C@H](O)[C@@H](C)/C=C(\C)[C@H](OC(N)=O)[C@@H](OC)/C=C\C=C(/C)C(=O)NC(=CC2=O)C3=O)c(OC)c1	3110	330	–
COc1ccc(CNC2=C3C[C@@H](C)C[C@H](OC)[C@H](O)[C@@H](C)/C=C(\C)[C@H](OC(N)=O)[C@@H](OC)/C=C\C=C(/C)C(=O)NC(=CC2=O)C3=O)cc1OC	> 10000	360	–
COc1cc(CNC2=C3C[C@@H](C)C[C@H](OC)[C@H](O)[C@@H](C)/C=C(\C)[C@H](OC(N)=O)[C@@H](OC)/C=C\C=C(/C)C(=O)NC(=CC2=O)C3=O)cc(OC)c1OC	2450	640	–
COc1cc(CNC2=C3C[C@@H](C)C[C@H](OC)[C@H](O)[C@@H](C)/C=C(\C)[C@H](OC(N)=O)[C@@H](OC)/C=C\C=C(/C)C(=O)NC(=CC2=O)C3=O)ccc1O	140	160	–
CO[C@H]1/C=C\C=C(/C)C(=O)NC2=CC(=O)C(NCc3ccc(O)cc3)=C(C[C@@H](C)C[C@H](OC)[C@H](O)[C@@H](C)/C=C(\C)[C@@H]1OC(N)=O)C2=O	8480	170	–
CO[C@H]1/C=C\C=C(/C)C(=O)NC2=CC(=O)C(NCc3ccccc3C)=C(C[C@@H](C)C[C@H](OC)[C@H](O)[C@@H](C)/C=C(\C)[C@@H]1OC(N)=O)C2=O	5700	1670	–

Compound	IC50 (LNCaP) [nM]	IC50 (MDA-MB-231 [1]) [nM]	other results
CO[C@H]1/C=C\C=C(/C)C(=O)NC2=CC(=O)C(NCc3cccc(C)c3)=C(C[C@@H](C)C[C@H](OC)[C@H](O)[C@@H](C)/C=C(\C)[C@@H]1OC(N)=O)C2=O	5230	800	–
CO[C@H]1/C=C\C=C(/C)C(=O)NC2=CC(=O)C(NCc3ccc(C)cc3)=C(C[C@@H](C)C[C@H](OC)[C@H](O)[C@@H](C)/C=C(\C)[C@@H]1OC(N)=O)C2=O	> 10000	490	–
CO[C@H]1/C=C\C=C(/C)C(=O)NC2=CC(=O)C(NCc3cccc(N)c3)=C(C[C@@H](C)C[C@H](OC)[C@H](O)[C@@H](C)/C=C(\C)[C@@H]1OC(N)=O)C2=O	180	560	–
CO[C@H]1/C=C\C=C(/C)C(=O)NC2=CC(=O)C(NCc3ccc(N)cc3)=C(C[C@@H](C)C[C@H](OC)[C@H](O)[C@@H](C)/C=C(\C)[C@@H]1OC(N)=O)C2=O	50	170	Activity (Mus musculus [2]): 215.8 U/L; Activity (Mus musculus [3]): 74.9 U/L; IC50 [4]: 890 nM; inhibition in vivo at 10 mg/kg (MDA-MB-231 [5]): 46%; T/C (MDA-MB-231 [6]): 55%
CO[C@H]1/C=C\C=C(/C)C(=O)NC2=CC(=O)C(NCc3cccc(C#N)c3)=C(C[C@@H](C)C[C@H](OC)[C@H](O)[C@@H](C)/C=C(\C)[C@@H]1OC(N)=O)C2=O	1800	450	–
CO[C@H]1/C=C\C=C(/C)C(=O)NC2=CC(=O)C(NCc3ccc(C#N)cc3)=C(C[C@@H](C)C[C@H](OC)[C@H](O)[C@@H](C)/C=C(\C)[C@@H]1OC(N)=O)C2=O	480	250	–
CO[C@H]1/C=C\C=C(/C)C(=O)NC2=CC(=O)C(NCc3ccc(S(C)(=O)=O)cc3)=C(C[C@@H](C)C[C@H](OC)[C@H](O)[C@@H](C)/C=C(\C)[C@@H]1OC(N)=O)C2=O	850	350	–
CO[C@H]1/C=C\C=C(/C)C(=O)NC2=CC(=O)C(NCc3ccc(S(N)(=O)=O)cc3)=C(C[C@@H](C)C[C@H](OC)[C@H](O)[C@@H](C)/C=C(\C)[C@@H]1OC(N)=O)C2=O	960	1060	–
COC(=O)c1ccc(CNC2=C3C[C@@H](C)C[C@H](OC)[C@H](O)[C@@H](C)/C=C(\C)[C@H](OC(N)=O)[C@@H](OC)/C=C\C=C(/C)C(=O)NC(=CC2=O)C3=O)cc1	1030	130	–
CCOC(=O)c1ccc(CNC2=C3C[C@@H](C)C[C@H](OC)[C@H](O)[C@@H](C)/C=C(\C)[C@H](OC(N)=O)[C@@H](OC)/C=C\C=C(/C)C(=O)NC(=CC2=O)C3=O)cc1	1340	130	–
CO[C@H]1/C=C\C=C(/C)C(=O)NC2=CC(=O)C(NCc3ccc(OC(F)(F)F)cc3)=C(C[C@@H](C)C[C@H](OC)[C@H](O)[C@@H](C)/C=C(\C)[C@@H]1OC(N)=O)C2=O	570	180	–
CO[C@H]1/C=C\C=C(/C)C(=O)NC2=CC(=O)C(NCc3cccc([N+](=O)[O-])c3)=C(C[C@@H](C)C[C@H](OC)[C@H](O)[C@@H](C)/C=C(\C)[C@@H]1OC(N)=O)C2=O	340	690	–
CO[C@H]1/C=C\C=C(/C)C(=O)NC2=CC(=O)C(NCc3ccsc3)=C(C[C@@H](C)C[C@H](OC)[C@H](O)[C@@H](C)/C=C(\C)[C@@H]1OC(N)=O)C2=O	680	400	–
CO[C@H]1/C=C\C=C(/C)C(=O)NC2=CC(=O)C(NCc3cncn3C)=C(C[C@@H](C)C[C@H](OC)[C@H](O)[C@@H](C)/C=C(\C)[C@@H]1OC(N)=O)C2=O	440	410	–
CO[C@H]1/C=C\C=C(/C)C(=O)NC2=CC(=O)C(NCc3ccc(Cl)nc3)=C(C[C@@H](C)C[C@H](OC)[C@H](O)[C@@H](C)/C=C(\C)[C@@H]1OC(N)=O)C2=O	510	80	Activity (Mus musculus [2]): 173.6 U/L; Activity (Mus musculus [3]): 79.4 U/L; IC50 [4]: 1040 nM; inhibition in vivo at 10 mg/kg (MDA-MB-231 [5]): 50%; T/C (MDA-MB-231 [6]): 40%
COC1=C2C[C@@H](C)C[C@H](OC)[C@H](O)[C@@H](C)/C=C(\C)[C@H](OC(N)=O)[C@@H](OC)/C=C\C=C(/C)C(=O)NC(=CC1=O)C2=O [GELDANAMYCIN]	–	–	Activity (Mus musculus [2]): 317.2 U/L; Activity (Mus musculus [3]): 273 U/L
C=CCNC1=C2C[C@@H](C)C[C@H](OC)[C@H](O)[C@@H](C)/C=C(\C)[C@H](OC(N)=O)[C@@H](OC)/C=C\C=C(/C)C(=O)NC(=CC1=O)C2=O [TANESPIMYCIN]	160	–	Activity (Mus musculus [2]): 237.4 U/L; Activity (Mus musculus [3]): 66.6 U/L; inhibition in vivo at 10 mg/kg (MDA-MB-231 [5]): 57%; T/C (MDA-MB-231 [6]): 35%
